Measured values: ChEMBL document CHEMBL4800722, “Data for DCP probe BI 605906” (2021)

Key:
[1] = target: Histamine H1 receptor (Homo sapiens) (UniProt P35367); conditions: Compound concentration 10.0 uM
[2] = target: Muscarinic acetylcholine receptor M1 (Homo sapiens) (UniProt P11229); conditions: Compound concentration 10.0 uM
[3] = target: 5-hydroxytryptamine receptor 2C (Homo sapiens) (UniProt P28335); conditions: Compound concentration 10.0 uM
[4] = target: Beta-2 adrenergic receptor (Homo sapiens) (UniProt P07550); conditions: Compound concentration 10.0 uM
[5] = target: 5-hydroxytryptamine receptor 1E (Homo sapiens) (UniProt P28566); conditions: Compound concentration 10.0 uM
[6] = target: Mu-type opioid receptor (Homo sapiens) (UniProt P35372); conditions: Compound concentration 10.0 uM
[7] = target: Muscarinic acetylcholine receptor M2 (Homo sapiens) (UniProt P08172); conditions: Compound concentration 10.0 uM
[8] = target: Sodium-dependent noradrenaline transporter (Homo sapiens) (UniProt P23975); conditions: Compound concentration 10.0 uM
[9] = target: Alpha-1A adrenergic receptor (Homo sapiens) (UniProt P35348); conditions: Compound concentration 10.0 uM
[10] = target: Muscarinic acetylcholine receptor M4 (Homo sapiens) (UniProt P08173); conditions: Compound concentration 10.0 uM
[11] = target: 5-hydroxytryptamine receptor 1D (Homo sapiens) (UniProt P28221); conditions: Compound concentration 10.0 uM
[12] = target: Alpha-1B adrenergic receptor (Homo sapiens) (UniProt P35368); conditions: Compound concentration 10.0 uM
[13] = target: T1, D(4) dopamine receptor (Homo sapiens) (UniProt P21917); conditions: Compound concentration 10.0 uM
T1 sequence (whole entry): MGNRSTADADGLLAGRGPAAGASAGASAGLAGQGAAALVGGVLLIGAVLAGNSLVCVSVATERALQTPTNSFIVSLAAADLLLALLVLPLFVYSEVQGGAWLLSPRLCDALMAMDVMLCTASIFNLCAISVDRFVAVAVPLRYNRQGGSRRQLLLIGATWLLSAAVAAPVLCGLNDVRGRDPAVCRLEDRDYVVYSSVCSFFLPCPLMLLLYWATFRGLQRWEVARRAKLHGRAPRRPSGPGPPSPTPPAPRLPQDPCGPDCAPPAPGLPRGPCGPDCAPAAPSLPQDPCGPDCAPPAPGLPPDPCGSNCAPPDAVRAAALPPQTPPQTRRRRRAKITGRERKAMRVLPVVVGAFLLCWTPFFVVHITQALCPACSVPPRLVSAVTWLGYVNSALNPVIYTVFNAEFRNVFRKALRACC

[14] = target: 5-hydroxytryptamine receptor 2A (Homo sapiens) (UniProt P28223); conditions: Compound concentration 10.0 uM
[15] = target: T2, GABA-A receptor; anion channel (Rattus norvegicus) (UniProt O09028+P15431+P18506+P18508+P19969+P20236+P23574+P23576+P28471+P28473+P30191+P62813+P63079+P63138+Q91ZM7+Q9ES14); conditions: Compound concentration 10.0 uM
[16] = target: Muscarinic acetylcholine receptor M5 (Homo sapiens) (UniProt P08912); conditions: Compound concentration 10.0 uM
[17] = target: D(2) dopamine receptor (Homo sapiens) (UniProt P14416); conditions: Compound concentration 10.0 uM
[18] = target: 5-hydroxytryptamine receptor 6 (Homo sapiens) (UniProt P50406); conditions: Compound concentration 10.0 uM
[19] = target: 5-hydroxytryptamine receptor 1A (Homo sapiens) (UniProt P08908); conditions: Compound concentration 10.0 uM
[20] = target: Alpha-2B adrenergic receptor (Homo sapiens) (UniProt P18089); conditions: Compound concentration 10.0 uM
[21] = target: Histamine H2 receptor (Homo sapiens) (UniProt P25021); conditions: Compound concentration 10.0 uM
[22] = target: Alpha-2A adrenergic receptor (Homo sapiens) (UniProt P08913); conditions: Compound concentration 10.0 uM
[23] = target: 5-hydroxytryptamine receptor 5A (Homo sapiens) (UniProt P47898); conditions: Compound concentration 10.0 uM
[24] = target: 5-hydroxytryptamine receptor 2B (Homo sapiens) (UniProt P41595); conditions: Compound concentration 10.0 uM
[25] = target: Sodium-dependent serotonin transporter (Homo sapiens) (UniProt P31645); conditions: Compound concentration 10.0 uM
[26] = target: D(1A) dopamine receptor (Homo sapiens) (UniProt P21728); conditions: Compound concentration 10.0 uM
Rattus norvegicus = organism: Rattus norvegicus; conditions: Compound concentration 10.0 uM
[27] = target: Sigma non-opioid intracellular receptor 1 (Homo sapiens) (UniProt Q99720); conditions: Compound concentration 10.0 uM
[28] = target: 5-hydroxytryptamine receptor 7 (Homo sapiens) (UniProt P34969); conditions: Compound concentration 10.0 uM
[29] = target: Alpha-2C adrenergic receptor (Homo sapiens) (UniProt P18825); conditions: Compound concentration 10.0 uM
[30] = target: Sigma intracellular receptor 2 (Homo sapiens) (UniProt Q5BJF2); conditions: Compound concentration 10.0 uM
[31] = target: T3, Sodium-dependent dopamine transporter (Homo sapiens, UniProt Q01959); test: GPCRScan assay: inhibition of DAT; design: radioligand conc. used [nm] 3.6 – 16.0, parental cells stable HEK
[32] = target: Muscarinic acetylcholine receptor M3 (Homo sapiens) (UniProt P20309); conditions: Compound concentration 10.0 uM
[33] = target: T3, Sodium-dependent dopamine transporter; conditions: Compound concentration 10.0 uM
[34] = target: T2, GABA-A receptor; anion channel (Rattus norvegicus); conditions: Compound concentration 10.0 uM; remark: listed apart in the source
[35] = target: Histamine H3 receptor (Homo sapiens) (UniProt Q9Y5N1); conditions: Compound concentration 10.0 uM
[36] = target: Kappa-type opioid receptor (Homo sapiens) (UniProt P41145); conditions: Compound concentration 10.0 uM
[37] = target: Alpha-1D adrenergic receptor (Homo sapiens) (UniProt P25100); conditions: Compound concentration 10.0 uM
[38] = target: Inhibitor of nuclear factor kappa-B kinase subunit beta (Homo sapiens, UniProt O14920); test: Biochemical assay
[39] = target: 5-hydroxytryptamine receptor 3A (Homo sapiens) (UniProt P46098); conditions: Compound concentration 10.0 uM
[40] = target: Delta-type opioid receptor (Homo sapiens) (UniProt P41143); conditions: Compound concentration 10.0 uM

T3 sequence (Q01959 whole entry): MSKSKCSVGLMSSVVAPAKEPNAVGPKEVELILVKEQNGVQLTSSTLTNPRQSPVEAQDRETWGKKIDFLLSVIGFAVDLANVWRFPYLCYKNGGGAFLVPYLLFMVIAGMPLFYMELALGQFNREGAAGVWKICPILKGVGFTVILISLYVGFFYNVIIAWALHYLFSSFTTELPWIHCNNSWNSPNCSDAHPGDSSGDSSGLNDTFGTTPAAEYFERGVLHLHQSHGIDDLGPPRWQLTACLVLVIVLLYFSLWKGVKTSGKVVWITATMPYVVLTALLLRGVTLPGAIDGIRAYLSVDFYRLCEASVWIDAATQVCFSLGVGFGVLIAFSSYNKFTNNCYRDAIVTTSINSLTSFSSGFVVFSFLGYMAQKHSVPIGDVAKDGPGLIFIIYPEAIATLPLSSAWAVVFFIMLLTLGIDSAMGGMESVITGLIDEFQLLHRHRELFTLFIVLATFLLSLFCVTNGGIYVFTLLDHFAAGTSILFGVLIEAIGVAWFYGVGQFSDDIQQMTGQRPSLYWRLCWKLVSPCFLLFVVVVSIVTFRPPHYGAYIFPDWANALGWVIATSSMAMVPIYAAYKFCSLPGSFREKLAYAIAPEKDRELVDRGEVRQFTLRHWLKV
Chain of 5-hydroxytryptamine receptor 6 (Homo sapiens) (P50406 whole entry): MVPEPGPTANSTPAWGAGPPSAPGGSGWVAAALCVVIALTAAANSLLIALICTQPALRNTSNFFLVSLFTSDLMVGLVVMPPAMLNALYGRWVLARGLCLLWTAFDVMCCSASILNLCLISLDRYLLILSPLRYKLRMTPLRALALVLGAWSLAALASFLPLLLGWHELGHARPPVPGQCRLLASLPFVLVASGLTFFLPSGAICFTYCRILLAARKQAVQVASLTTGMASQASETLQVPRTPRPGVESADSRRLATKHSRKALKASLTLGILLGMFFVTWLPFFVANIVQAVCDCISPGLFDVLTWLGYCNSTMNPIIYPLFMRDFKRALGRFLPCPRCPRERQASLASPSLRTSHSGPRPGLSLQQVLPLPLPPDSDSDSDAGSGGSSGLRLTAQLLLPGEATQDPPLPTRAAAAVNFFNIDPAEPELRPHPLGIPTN
Chain of 5-hydroxytryptamine receptor 2A (Homo sapiens) (P28223 whole entry): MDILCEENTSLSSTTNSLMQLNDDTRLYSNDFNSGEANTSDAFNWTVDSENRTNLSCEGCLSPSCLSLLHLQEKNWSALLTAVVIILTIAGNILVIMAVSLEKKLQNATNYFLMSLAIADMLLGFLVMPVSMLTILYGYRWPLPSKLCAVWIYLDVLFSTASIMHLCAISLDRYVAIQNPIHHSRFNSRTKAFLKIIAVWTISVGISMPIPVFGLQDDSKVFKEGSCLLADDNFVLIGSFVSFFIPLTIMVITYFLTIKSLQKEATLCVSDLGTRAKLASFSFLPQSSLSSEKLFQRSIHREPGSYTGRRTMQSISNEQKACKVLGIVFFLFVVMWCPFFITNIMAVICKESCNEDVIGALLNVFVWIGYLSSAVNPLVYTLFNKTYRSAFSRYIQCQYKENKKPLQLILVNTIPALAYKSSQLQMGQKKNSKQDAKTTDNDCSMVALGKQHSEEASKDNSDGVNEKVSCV
Chain of Beta-2 adrenergic receptor (Homo sapiens) (P07550 whole entry, looked up): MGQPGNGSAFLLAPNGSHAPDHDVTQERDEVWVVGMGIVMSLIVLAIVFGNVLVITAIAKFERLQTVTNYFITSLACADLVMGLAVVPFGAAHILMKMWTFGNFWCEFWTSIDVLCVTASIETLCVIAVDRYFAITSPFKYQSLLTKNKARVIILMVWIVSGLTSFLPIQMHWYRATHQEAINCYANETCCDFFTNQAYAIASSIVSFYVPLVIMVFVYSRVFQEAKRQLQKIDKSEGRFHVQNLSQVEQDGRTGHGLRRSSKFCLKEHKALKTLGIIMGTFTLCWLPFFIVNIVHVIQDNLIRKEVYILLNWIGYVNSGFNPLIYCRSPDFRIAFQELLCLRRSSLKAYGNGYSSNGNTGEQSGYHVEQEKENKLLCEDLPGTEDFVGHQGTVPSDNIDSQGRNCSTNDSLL
Chain of Histamine H2 receptor (Homo sapiens) (P25021 whole entry): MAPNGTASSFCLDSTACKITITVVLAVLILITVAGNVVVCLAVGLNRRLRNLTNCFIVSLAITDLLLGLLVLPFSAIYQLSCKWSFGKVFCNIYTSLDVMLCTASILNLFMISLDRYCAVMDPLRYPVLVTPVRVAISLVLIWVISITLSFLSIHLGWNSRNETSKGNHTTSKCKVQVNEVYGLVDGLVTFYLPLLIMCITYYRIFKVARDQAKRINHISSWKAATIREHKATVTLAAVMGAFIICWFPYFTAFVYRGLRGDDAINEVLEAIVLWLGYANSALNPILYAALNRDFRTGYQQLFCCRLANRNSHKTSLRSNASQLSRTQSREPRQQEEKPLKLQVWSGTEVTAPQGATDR
Chain of 5-hydroxytryptamine receptor 1A (Homo sapiens) (P08908 whole entry): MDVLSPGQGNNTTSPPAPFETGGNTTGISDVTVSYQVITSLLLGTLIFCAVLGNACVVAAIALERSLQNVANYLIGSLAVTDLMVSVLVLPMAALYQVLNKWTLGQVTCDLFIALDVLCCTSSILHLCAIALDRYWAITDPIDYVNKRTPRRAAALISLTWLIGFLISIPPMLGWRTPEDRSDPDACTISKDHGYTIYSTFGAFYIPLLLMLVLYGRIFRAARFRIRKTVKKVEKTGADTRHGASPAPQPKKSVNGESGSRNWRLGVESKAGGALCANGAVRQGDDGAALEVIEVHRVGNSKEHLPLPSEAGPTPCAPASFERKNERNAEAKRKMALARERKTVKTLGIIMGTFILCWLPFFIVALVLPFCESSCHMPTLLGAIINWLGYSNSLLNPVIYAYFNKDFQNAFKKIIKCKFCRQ
Chain of Alpha-2A adrenergic receptor (Homo sapiens) (P08913 whole entry): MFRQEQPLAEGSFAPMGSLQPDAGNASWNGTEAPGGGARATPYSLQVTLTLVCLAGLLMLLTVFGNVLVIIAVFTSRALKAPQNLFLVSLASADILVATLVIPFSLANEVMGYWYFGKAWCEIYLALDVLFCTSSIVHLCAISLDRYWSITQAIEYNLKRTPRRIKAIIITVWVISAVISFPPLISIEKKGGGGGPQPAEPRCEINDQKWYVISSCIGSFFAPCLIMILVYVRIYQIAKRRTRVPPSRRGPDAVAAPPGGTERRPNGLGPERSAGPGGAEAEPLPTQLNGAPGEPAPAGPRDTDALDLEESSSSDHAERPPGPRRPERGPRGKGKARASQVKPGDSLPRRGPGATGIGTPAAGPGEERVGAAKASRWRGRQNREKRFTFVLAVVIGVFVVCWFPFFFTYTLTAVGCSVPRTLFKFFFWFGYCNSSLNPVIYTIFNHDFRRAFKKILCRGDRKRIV
Chain of Sodium-dependent noradrenaline transporter (Homo sapiens) (P23975 whole entry): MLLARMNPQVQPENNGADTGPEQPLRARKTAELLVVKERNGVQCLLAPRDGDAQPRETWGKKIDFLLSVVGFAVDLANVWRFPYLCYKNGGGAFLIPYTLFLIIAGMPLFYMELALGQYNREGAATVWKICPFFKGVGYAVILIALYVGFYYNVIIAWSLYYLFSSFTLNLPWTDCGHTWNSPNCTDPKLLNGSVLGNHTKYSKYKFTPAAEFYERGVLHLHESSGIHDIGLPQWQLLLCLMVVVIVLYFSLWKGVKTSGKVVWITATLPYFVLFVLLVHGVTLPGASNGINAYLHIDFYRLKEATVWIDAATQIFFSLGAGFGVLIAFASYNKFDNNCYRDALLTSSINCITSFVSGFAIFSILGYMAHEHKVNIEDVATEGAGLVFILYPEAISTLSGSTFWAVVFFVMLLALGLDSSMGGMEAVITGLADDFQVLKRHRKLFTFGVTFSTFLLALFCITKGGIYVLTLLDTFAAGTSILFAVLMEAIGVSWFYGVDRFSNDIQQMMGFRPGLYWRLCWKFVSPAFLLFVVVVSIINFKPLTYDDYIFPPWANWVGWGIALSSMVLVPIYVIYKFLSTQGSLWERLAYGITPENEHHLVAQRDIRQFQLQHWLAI
Chain of 5-hydroxytryptamine receptor 2B (Homo sapiens) (P41595 whole entry): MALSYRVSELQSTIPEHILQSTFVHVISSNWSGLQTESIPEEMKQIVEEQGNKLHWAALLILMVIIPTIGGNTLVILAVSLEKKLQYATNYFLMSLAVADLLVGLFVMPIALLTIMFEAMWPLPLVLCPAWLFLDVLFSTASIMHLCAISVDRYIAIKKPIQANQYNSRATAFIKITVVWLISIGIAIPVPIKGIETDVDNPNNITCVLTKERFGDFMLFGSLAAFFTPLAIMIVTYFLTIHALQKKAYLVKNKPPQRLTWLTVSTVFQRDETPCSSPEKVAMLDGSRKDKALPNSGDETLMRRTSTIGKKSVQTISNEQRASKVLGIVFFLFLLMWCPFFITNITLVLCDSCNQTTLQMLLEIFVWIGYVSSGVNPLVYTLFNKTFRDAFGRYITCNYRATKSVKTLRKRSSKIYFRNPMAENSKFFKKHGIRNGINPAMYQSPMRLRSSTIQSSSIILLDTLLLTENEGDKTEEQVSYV
Chain of Histamine H1 receptor (Homo sapiens) (P35367 whole entry): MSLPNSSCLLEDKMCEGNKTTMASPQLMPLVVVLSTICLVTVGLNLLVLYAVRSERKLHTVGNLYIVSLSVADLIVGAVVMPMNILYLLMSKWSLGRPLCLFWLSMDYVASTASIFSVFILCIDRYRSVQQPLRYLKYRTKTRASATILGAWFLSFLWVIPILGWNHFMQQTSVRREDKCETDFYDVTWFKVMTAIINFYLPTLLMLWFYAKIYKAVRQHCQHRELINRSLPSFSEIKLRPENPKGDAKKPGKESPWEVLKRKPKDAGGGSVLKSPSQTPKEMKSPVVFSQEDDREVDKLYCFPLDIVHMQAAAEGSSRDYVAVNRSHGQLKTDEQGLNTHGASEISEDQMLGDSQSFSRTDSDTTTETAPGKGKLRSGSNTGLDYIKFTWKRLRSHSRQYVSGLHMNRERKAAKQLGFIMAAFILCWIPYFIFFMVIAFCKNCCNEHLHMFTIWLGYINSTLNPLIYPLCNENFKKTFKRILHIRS
Chain of Sigma intracellular receptor 2 (Homo sapiens) (Q5BJF2 whole entry): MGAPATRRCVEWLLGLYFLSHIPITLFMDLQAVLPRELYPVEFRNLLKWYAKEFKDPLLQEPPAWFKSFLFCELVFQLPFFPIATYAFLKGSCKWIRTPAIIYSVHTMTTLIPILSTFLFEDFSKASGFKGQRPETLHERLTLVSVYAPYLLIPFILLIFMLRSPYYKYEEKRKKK

inhibition [1]: 24.5% | inhibition [2]: 0.25% | inhibition [3]: 11.6% | inhibition [4]: 6.22% | inhibition [5]: 2.45% | inhibition [6]: 22.4% | inhibition [7]: 13.4% | inhibition [8]: 1.7% | inhibition [9]: 22.8% | inhibition [10]: 3.63% | inhibition [11]: 6.7% | inhibition [12]: -7.86% | inhibition [13]: 4.15% | inhibition [14]: -1.79% | inhibition [15]: 3.61% | inhibition [16]: -6.93% | inhibition [17]: 1.12% | inhibition [18]: 24.2% | inhibition [19]: 40.6% | inhibition [20]: 3.36% | inhibition [21]: -1.35% | inhibition [22]: 13% | inhibition [23]: 5.35% | inhibition [24]: 47.5% | inhibition [25]: 18.1% | inhibition [26]: 1.22% | inhibition (Rattus norvegicus): 27.9% | inhibition [27]: 31.5% | inhibition [28]: 2.32% | inhibition [29]: 2.96% | inhibition [30]: 70.6% | Ki ([31]; read-out: Ki): 4.27 µM | Ki ([31]; read-out: pKi (converted)): 4.27 µM | inhibition [32]: 7.05% | inhibition [33]: 80.5% | inhibition [34]: 13.5% | inhibition [35]: -1.1% | inhibition [36]: 9.53% | inhibition [37]: 7.27% | IC50 [38]: > 10 µM (not active) | inhibition [39]: 10.3% | inhibition [40]: 8.58%
SMILES: CN(C)C(=O)c1sc2nc(N3CCC(S(C)(=O)=O)CC3)cc(C(F)(F)F)c2c1N [BI-5026]
